Data taken from ChEMBL document CHEMBL1135946, “Design, synthesis and biological activity of novel non-amidine factor Xa inhibitors. Part 1: P(1) structure-activity relationships of the substituted 1-(2-Naphthyl)-1H-pyrazole-5-carboxylamides” (Bioorg Med Chem Lett, 2002).
pIC50, pKi: −log10 of the molar value.

How the values were obtained:
[1] = target: Vitamin K-dependent protein C (Homo sapiens, UniProt P04070); experiment: Inhibitory activity against activated protein C
Plasminogen = Plasminogen (Homo sapiens, UniProt P00747); experiment: Inhibitory activity against plasmin
Chain of Plasminogen (P00747 97-580 limits assumed): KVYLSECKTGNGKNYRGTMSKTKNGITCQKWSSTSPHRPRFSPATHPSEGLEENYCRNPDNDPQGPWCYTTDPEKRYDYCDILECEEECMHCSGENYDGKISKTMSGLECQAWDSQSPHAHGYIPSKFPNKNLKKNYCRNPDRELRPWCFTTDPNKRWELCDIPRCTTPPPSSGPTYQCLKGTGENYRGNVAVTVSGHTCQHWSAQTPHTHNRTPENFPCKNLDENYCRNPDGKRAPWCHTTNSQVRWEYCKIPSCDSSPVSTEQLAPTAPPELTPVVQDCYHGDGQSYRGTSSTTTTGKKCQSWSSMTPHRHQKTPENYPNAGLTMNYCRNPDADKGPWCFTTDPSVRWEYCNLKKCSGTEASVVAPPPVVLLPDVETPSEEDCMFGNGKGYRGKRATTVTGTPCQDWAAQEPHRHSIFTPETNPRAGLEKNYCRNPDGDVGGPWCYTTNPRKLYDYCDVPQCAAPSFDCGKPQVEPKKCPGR
Chain of Plasminogen (P00747 581-810 limits assumed): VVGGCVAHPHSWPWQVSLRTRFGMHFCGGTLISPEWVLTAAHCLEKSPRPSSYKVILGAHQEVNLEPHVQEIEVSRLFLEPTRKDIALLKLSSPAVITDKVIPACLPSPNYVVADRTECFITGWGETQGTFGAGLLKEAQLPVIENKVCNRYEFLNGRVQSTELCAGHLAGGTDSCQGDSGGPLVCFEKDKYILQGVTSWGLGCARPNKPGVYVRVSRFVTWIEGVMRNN

Coagulation factor X [2] = target: T1, Coagulation factor X (Homo sapiens, UniProt P00742); experiment: Inhibitory activity against coagulation factor Xa
T1 sequence (P00742 41-179 limits assumed): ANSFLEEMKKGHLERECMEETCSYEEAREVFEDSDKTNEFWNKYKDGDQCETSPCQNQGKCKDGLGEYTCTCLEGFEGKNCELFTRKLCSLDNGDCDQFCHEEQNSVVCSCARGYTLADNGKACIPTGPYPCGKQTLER
T1 sequence (P00742 235-488 limits assumed): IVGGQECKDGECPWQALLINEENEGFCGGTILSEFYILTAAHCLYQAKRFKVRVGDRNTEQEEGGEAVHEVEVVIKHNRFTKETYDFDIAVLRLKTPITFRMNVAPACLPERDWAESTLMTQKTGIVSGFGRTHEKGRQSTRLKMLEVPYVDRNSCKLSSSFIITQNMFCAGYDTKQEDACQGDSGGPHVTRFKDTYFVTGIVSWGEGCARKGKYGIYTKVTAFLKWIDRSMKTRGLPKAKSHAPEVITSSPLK

Prothrombin = Prothrombin (Homo sapiens, UniProt P00734); experiment: Inhibitory activity against thrombin
Serine protease 1 = Serine protease 1 (Homo sapiens, UniProt P07477); experiment: Inhibitory activity against trypsin
Chain of Serine protease 1 (P07477 whole entry): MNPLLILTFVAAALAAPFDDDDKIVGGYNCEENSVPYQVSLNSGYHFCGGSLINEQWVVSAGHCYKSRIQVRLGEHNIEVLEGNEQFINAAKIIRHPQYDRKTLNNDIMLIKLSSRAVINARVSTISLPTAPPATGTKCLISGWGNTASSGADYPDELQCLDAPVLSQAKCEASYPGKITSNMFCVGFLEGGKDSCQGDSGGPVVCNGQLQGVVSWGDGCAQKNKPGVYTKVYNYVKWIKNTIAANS

Kallikrein-1 = Kallikrein-1 (Homo sapiens, UniProt P06870); experiment: Inhibitory activity against kallikrein
Chain of Kallikrein-1 (P06870 whole entry): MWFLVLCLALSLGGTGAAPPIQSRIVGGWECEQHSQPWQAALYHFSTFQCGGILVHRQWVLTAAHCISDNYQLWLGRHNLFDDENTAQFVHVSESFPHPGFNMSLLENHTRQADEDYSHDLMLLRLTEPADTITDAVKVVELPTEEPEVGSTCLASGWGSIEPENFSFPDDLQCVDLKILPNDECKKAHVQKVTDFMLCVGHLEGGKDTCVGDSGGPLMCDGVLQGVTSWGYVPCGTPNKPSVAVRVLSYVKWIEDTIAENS

[3] = Tested for volume of distribution after intravenous administration to Sprague-Dawley rat at dosage of 0.2 mg/kg; format: ADME, organism-based; design: dose 0.2 mg/kg, route intravenous; settings: in vivo, read-out: Volume of distribution
[4] = Tested for half life value after oral administration at dosage of 4 mg/kg in rat; format: ADME, organism-based; design: dose 4 mg/kg, route oral; settings: in vivo
Coagulation factor X [5] = target: T1, Coagulation factor X; experiment: Tested for inhibitory activity against Coagulation factor Xa (trypsin-like serine protease) of the compound
[6] = Tested for half life value after intravenous administration at dose of 0.2 mg/kg in rat; format: ADME, organism-based; design: dose 0.2 mg/kg, route intravenous; settings: in vivo
[7] = Clearance after iv administration to Sprague-Dawley rat at dosage of 0.2 mg/kg; format: ADME, organism-based; design: dose 0.2 mg/kg, route intravenous; settings: in vivo
[8] = Tested for percent bioavailability after oral administration to Sprague-Dawley rat at dosage of 4 mg/kg; settings: in vivo, read-out: Bioavailabiility
[9] = Oral bioavailability in rat by oral dosing; format: ADME, organism-based; settings: in vivo
[10] = Half-life was determined; format: ADME, organism-based; settings: rat, in vivo

Chain of Vitamin K-dependent protein C (P04070 43-197 limits assumed): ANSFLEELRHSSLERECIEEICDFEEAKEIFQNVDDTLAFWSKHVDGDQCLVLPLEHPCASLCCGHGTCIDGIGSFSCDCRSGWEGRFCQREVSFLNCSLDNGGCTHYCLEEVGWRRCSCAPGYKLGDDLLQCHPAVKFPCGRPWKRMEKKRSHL
Chain of Vitamin K-dependent protein C (P04070 212-461 limits assumed): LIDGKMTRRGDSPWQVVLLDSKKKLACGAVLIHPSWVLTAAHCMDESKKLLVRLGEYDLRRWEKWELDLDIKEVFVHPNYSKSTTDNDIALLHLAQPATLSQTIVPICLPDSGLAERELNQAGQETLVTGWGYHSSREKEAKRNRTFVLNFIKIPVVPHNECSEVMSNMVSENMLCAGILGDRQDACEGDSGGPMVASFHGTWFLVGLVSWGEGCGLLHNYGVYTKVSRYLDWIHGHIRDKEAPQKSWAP

Row | Compound | pIC50 [1] | pIC50 (Plasminogen) | pIC50 (Coagulation factor X [2]) | pIC50 (Prothrombin) | pIC50 (Serine protease 1) | pIC50 (Kallikrein-1) | Vd [3] | half-life [4] | pKi (Coagulation factor X [5]) | half-life [6] | clearance [7] | bioavailability [8] | bioavailability [9] | half-life [10]
1 | Cc1cc(C(=O)Nc2ccc(-c3ccccc3S(N)(=O)=O)cc2)n(-c2ccc3cc(Cl)ccc3c2)n1 | < 4.96 | < 4.96 | 7.96 | < 4.96 | < 4.96 | < 4.96 |  |  |  |  |  |  |  | 
2 | Cc1cc(C(=O)Nc2ccc(-c3ccccc3S(N)(=O)=O)cc2)n(-c2cc3ccccc3cc2S(N)(=O)=O)n1 | < 4.96 | < 4.96 | 7.62 | < 4.96 | < 4.96 | < 4.96 |  |  |  |  |  |  |  | 
3 | Cc1cc(C(=O)Nc2ccc(-c3ccccc3S(N)(=O)=O)cc2)n(-c2cc3ccccc3cc2C2=NCCN2)n1 | < 4.96 | < 4.96 | 5.11 | < 4.96 | < 4.96 | < 4.96 |  |  |  |  |  |  |  | 
4 | Cc1cc(C(=O)Nc2ccc(-c3ccccc3S(N)(=O)=O)cc2)n(-c2cc3ccccc3cc2C#N)n1 | < 4.96 | < 4.96 | 8.22 | < 4.96 | < 4.96 | < 4.96 |  |  |  |  |  |  |  | 
5 | Cc1cc(C(=O)Nc2ccc(-c3ccccc3S(N)(=O)=O)cc2)n(-c2cc3ccccc3cc2CN)n1 | < 4.96 | < 4.96 | 7.42 | < 4.96 | < 4.96 | < 4.96 |  |  |  |  |  |  |  | 
6 | Cc1cc(C(=O)Nc2ccc(-c3ccccc3S(N)(=O)=O)cc2)n(-c2ccc3cc(Br)ccc3c2)n1 | < 4.96 | < 4.96 | 7.74 | < 4.96 | < 4.96 | < 4.96 |  |  |  |  |  |  |  | 
7 | Cc1cc(C(=O)Nc2ccc(-c3ccccc3S(N)(=O)=O)cc2)n(-c2cc3ccccc3cc2C(=N)N(C)C)n1 | < 4.96 | < 4.96 | 5.78 | < 4.96 | < 4.96 | < 4.96 |  |  |  |  |  |  |  | 
8 | COc1ccc2cc(-n3nc(C)cc3C(=O)Nc3ccc(-c4ccccc4S(N)(=O)=O)cc3)ccc2c1 | < 4.96 | < 4.96 |  | < 4.96 | < 4.96 | < 4.96 |  |  |  |  |  |  |  | 
9 | Cc1cc(C(=O)Nc2ccc(-c3ccccc3S(N)(=O)=O)cc2)n(-c2cc3ccccc3cc2C(=N)N)n1 | < 4.96 | < 4.96 | 7.68 | < 4.96 | < 4.96 | < 4.96 |  |  |  |  |  |  |  | 
10 | Cc1cc(C(=O)Nc2ccc(-c3ccccc3S(N)(=O)=O)cc2)n(-c2cc3ccccc3cc2S(C)(=O)=O)n1 | < 4.96 | < 4.96 | 7.35 | < 4.96 | < 4.96 | < 4.96 |  |  |  |  |  |  |  | 
11 | Cc1cc(C(=O)Nc2ccc(-c3ccccc3S(N)(=O)=O)cc2)n(-c2cc3ccccc3cc2C(N)=O)n1 | < 4.96 | < 4.96 | 7.62 | < 4.96 | < 4.96 | < 4.96 |  |  |  |  |  |  |  | 
12 | Cc1cc(C(=O)Nc2ccc(-c3ccccc3S(N)(=O)=O)cc2)n(-c2nc3ccc(Cl)cc3s2)n1 |  |  | < 4.96 |  |  |  |  |  |  |  |  |  |  | 
13 | Cc1cc(C(=O)Nc2ccc(-c3ccccc3S(N)(=O)=O)cc2)n(-c2ccc3ccccc3c2)n1 | < 4.96 | < 4.96 | 6.98 | < 4.96 | < 4.96 | < 4.96 |  |  |  |  |  |  | 24.5% | 2.4 h

The next lines start with the values.

Row | pIC50 [1] | pIC50 (Plasminogen) | pIC50 (Coagulation factor X [2]) | pIC50 (Prothrombin) | pIC50 (Serine protease 1) | pIC50 (Kallikrein-1) | Vd [3] | half-life [4] | pKi (Coagulation factor X [5]) | half-life [6] | clearance [7] | bioavailability [8] | bioavailability [9] | half-life [10] | Compound
14 |  |  | 8.40 |  |  |  |  |  |  |  |  |  |  |  | NS(=O)(=O)c1ccccc1-c1ccc(NC(=O)c2cc(C(F)(F)F)nn2-c2ccc3cc(Cl)ccc3c2)cc1
15 | < 4.96 | < 4.96 | 6.26 | < 4.96 | < 4.96 | < 4.96 |  |  |  |  |  |  |  |  | COC(=O)c1cc2ccccc2cc1-n1nc(C)cc1C(=O)Nc1ccc(-c2ccccc2S(N)(=O)=O)cc1
16 | < 4.96 | < 4.96 | 6.32 | < 4.96 | < 4.96 | < 4.96 |  |  |  |  |  |  |  |  | Cc1cc(C(=O)Nc2ccc(-c3ccccc3S(N)(=O)=O)cc2)n(-c2cc3ccccc3cc2CO)n1
17 | < 4.96 | < 4.96 | 8.05 | < 4.96 | < 4.96 | < 4.96 | 2.6 L/kg | 6 h | 8.24 | 1.7 h | 17.7 mL/min/kg | 22% |  |  | Cc1cc(C(=O)Nc2ccc(-c3ccccc3S(N)(=O)=O)cc2)n(-c2cc3ccccc3cc2F)n1
18 | < 4.96 | < 4.96 | 6.42 | < 4.96 | < 4.96 | < 4.96 |  |  |  |  |  |  |  |  | Cc1cc(C(=O)Nc2ccc(-c3ccccc3S(N)(=O)=O)cc2)n(-c2cc3ccccc3cc2C(=O)O)n1
19 | < 4.96 | < 4.96 | < 4.96 | < 4.96 | < 4.96 | < 4.96 |  |  |  |  |  |  |  |  | Cc1cc(C(=O)Nc2ccc(-c3ccccc3S(N)(=O)=O)cc2)n(-c2cc3ccccc3cc2O)n1
20 |  |  | 7.57 |  |  |  |  |  |  |  |  |  |  |  | NS(=O)(=O)c1ccccc1-c1ccc(NC(=O)c2cc(C(F)(F)F)nn2-c2cc3ccccc3cc2F)cc1
21 | < 4.96 | < 4.96 | 5.45 | < 4.96 | < 4.96 | < 4.96 |  |  |  |  |  |  |  |  | Cc1cc(C(=O)Nc2ccc(-c3ccccc3S(N)(=O)=O)cc2)n(-c2ccc3cc(O)ccc3c2)n1
22 | < 4.96 | < 4.96 | 6.84 | < 4.96 | < 4.96 | < 4.96 |  |  |  |  |  |  |  |  | Cc1cc(C(=O)Nc2ccc(-c3ccccc3S(N)(=O)=O)cc2)n(-c2cc3ccccc3cc2Br)n1
